Assay results as given in US20070037752A1, “Novel alanyl-amino peptidase inhibitors for functionally influencing different cells and treating immunological, inflammatory, neuronal, and other diseases” (priority 2003, published 2007).
Like-named read-outs stand apart in the source and are kept apart here. Each block holds one molecule with its values, some of them ahead of it.

Biological target: alanyl aminopeptidases (APN) (Homo sapiens, UniProt P15144)
Assay: Inhibition of alanyl aminopeptidase enzymatic activity, fluorogenic substrate (Ala)2-rhodamine 110
Assay type: biochemical
Procedure: The inhibition characteristics measured are referred to as IC-50 values or ID50 values (the latter marked with “*”) for said enzyme. The enzymatic activity was determined by means of the fluorogenic substrate/product (Ala)2-rhodamine 110.

[1] = Table 4, unstarred values, read-out: IC50APN
[2] = Table 3, starred values = ID50, read-out: ID50 APN (values marked with *)
[3] = Table 3, unstarred values, read-out: IC50APN
[4] = Table 9, unstarred values, read-out: IC50APN
[5] = Table 8, unstarred values, read-out: IC50APN

alanyl aminopeptidases (APN), sequence (P15144 whole entry, species assumed): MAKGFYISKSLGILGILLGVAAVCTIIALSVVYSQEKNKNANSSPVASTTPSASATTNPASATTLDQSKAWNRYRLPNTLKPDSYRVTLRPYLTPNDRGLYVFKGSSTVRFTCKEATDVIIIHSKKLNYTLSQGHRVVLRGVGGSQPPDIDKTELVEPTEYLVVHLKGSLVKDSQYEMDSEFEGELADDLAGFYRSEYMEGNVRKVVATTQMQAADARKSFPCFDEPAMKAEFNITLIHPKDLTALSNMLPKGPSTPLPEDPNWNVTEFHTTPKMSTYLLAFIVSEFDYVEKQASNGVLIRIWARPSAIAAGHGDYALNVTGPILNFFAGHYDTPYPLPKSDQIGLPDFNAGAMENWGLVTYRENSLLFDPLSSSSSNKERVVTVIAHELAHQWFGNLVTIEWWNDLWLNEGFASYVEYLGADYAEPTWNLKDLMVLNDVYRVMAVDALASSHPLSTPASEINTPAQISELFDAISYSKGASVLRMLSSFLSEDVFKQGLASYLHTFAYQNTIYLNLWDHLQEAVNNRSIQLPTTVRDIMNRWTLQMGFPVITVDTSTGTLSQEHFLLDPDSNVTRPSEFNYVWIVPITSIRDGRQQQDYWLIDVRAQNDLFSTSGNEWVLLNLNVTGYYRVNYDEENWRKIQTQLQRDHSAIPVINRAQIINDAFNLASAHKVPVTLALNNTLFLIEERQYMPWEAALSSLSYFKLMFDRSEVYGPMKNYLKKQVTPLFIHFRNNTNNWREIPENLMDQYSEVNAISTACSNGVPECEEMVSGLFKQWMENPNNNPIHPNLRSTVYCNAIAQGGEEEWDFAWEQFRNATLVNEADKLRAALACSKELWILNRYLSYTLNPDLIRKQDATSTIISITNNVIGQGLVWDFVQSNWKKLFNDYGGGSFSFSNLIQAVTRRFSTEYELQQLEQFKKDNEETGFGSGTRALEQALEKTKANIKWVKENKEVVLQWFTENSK

IC50 [1]: 15 µM
SMILES: COc1ccc(OCC(=O)N/N=C/c2cc(Br)c(O)c(O)c2Br)c(Br)c1 [A4.033]

IC50 (Table 2, read-out: IC50APN): 10.9 µM
SMILES: Cc1ccc(/C=N/NC(=O)c2nnn(-c3nonc3N)c2C)o1 [A2.003]

IC50 [2]: 146 µM
SMILES: CC(C(=O)N/N=C/c1ccco1)n1nnc2ccccc21 (centres unmarked) [A3.327]

IC50 [3]: 10.5 µM
SMILES: Cc1ccc(/C=N/NC(=O)c2cccc(Cl)c2)o1 [A3.039]

IC50 [3]: 74.7 µM
SMILES: O=C(CCc1ccccc1)N/N=C/c1ccco1 [A3.302]

IC50 [3]: 47 µM
SMILES: COc1ccc(N(C(C)C(=O)N/N=C/c2ccco2)S(C)(=O)=O)cc1 (centres unmarked) [A3.251]

IC50 [4]: 29.1 µM
SMILES: O=C(C1c2ccccc2Oc2ccccc21)n1cc(Cl)cn1 [A9.075]

IC50 [1]: 6.7 µM
SMILES: CCc1cccc(CC)c1NC(=S)N/N=C1\C(=O)N(CN2CC(C)CC(C)C2)c2ccccc21 (centres unmarked) [A4.007]

IC50 [3]: 37.7 µM
SMILES: O=C(N/N=C/c1ccco1)c1ccccc1 [A3.227]

IC50 [3]: 24.8 µM
SMILES: Cc1ccc(/C=C/C(=O)Nc2ccc(S(=O)(=O)N3CCCC3)cc2)o1 [A3.149]

IC50 [1]: 28.6 µM
SMILES: CC(N/N=C1/SC(CC(=O)O)C(=O)N1c1ccccc1)c1ccco1 (centres unmarked) [A4.092]

IC50 [4]: 5 µM
SMILES: COC(=O)c1ccc(-c2ccc(/C=C3\C(=O)N(CCCO)C(=O)C(C#N)=C3C)o2)cc1 [A9.008]

IC50 [3]: 29.4 µM
SMILES: COc1ccc(/C(C)=N/NC(=O)CNC(=O)/C=C\c2ccco2)cc1 [A3.181]

IC50 [5]: 18.2 µM
SMILES: Cc1cc(=O)[nH]c(N/N=C/c2ccco2)n1 [A8.018]

IC50 [2]: 161 µM
SMILES: C/C(=N\NC(=O)c1cc(-c2ccco2)n[nH]1)c1ccco1 [A3.334]

IC50 [3]: 23.1 µM
SMILES: CCOC(=O)C1=C2SCC(=O)N2C(N)=C(C#N)C1 [A3.139]

IC50 [1]: 15.6 µM
SMILES: O=C(CNC(=O)C(c1ccccc1)c1ccccc1)N/N=C/c1ccco1 [A4.034]

IC50 (Table 6, read-out: IC50APN): 16.4 µM
SMILES: Cc1ccc(S(=O)(=O)N(Cc2ccc(Cl)cc2)c2ccccc2C(=O)N/N=C/c2ccco2)cc1 [A6.008]

IC50 [3]: 7.3 µM
SMILES: CCOC(=O)N1CCc2c(sc(NC(=O)c3ccc(F)cc3)c2C(=O)Nc2ccc(Br)cc2)C1 [A3.026]

IC50 (Table 12, read-out: IC50APN): 14.2 µM
SMILES: Cc1ccc(C(OCCC(=O)NO)c2ccc(C)cc2)cc1 [A12.029]

IC50 [3]: 29.5 µM
SMILES: O=C(N/N=C/c1ccco1)c1cccc(NC(=O)c2ccccc2)c1 [A3.182]

IC50 (Table 11, read-out: IC50APN): 30 µM
SMILES: CCOC(=O)C(C#N)c1c([N+](=O)[O-])c(=O)n(-c2ccccc2)c2ccccc12 (centres unmarked) [A11.022]

IC50 [1]: 36.3 µM
SMILES: Cc1ccc(OCC(=O)N/N=C/c2ccco2)cc1C [A4.117]

IC50 [1]: 62.7 µM
SMILES: O=C(N/N=C/C=C\c1ccco1)c1cccs1 [A4.151]

IC50 [2]: 336 µM
SMILES: CCc1ccc(N2C(=O)C3C(c4cccc(Cl)c4)OC4(C(=O)c5ccccc5C4=O)C3C2=O)cc1 (centres unmarked) [A3.350]

IC50 [3]: 8.3 µM
SMILES: CCCCOC(=O)c1ccc(NC(=O)/C=C\c2ccco2)cc1 [A3.032]

IC50 [1]: 60 µM
SMILES: O=C(CNC(=O)c1ccccc1F)N/N=C/c1ccc([N+](=O)[O-])o1 [A4.150]

IC50 [2]: 132 µM
SMILES: O=C(N/N=C\C=C\c1ccco1)c1cc(-c2cccs2)n[nH]1 [A3.324]

IC50 [4]: 33.6 µM
SMILES: CCOC(=O)C1=C(N)NC2=C(CCCC2)C12C(=O)Nc1ccccc12 (centres unmarked) [A9.088]

IC50 (Table 5, starred values = ID50, read-out: ID50 APN (values marked with *)): 197 µM
SMILES: CC(C)Oc1ccc(/C=N/CCC2(c3ccccc3)CCOC(C)(C)C2)cc1 (centres unmarked) [A5.007]

SMILES: O=[N+]([O-])c1ccc(C2OCN3COCC23)cc1 (centres unmarked) [A3.287]
IC50 [3]: 64.5 µM

IC50 (Table 8, starred values = ID50, read-out: ID50 APN (values marked with *)): 53.2 µM
SMILES: Cc1ccc(Cn2c(SCCC(=O)O)nc3c2c(=O)[nH]c(=O)n3C)cc1 [A8.033]

IC50 (Table 12, read-out: IC50APN): 5 µM
SMILES: COC(=O)c1ccc(-c2ccc(/C=C3\C(=O)N(CCCO)C(=O)C(C#N)=C3C)o2)cc1 [A12.005]

IC50 [3]: 13.6 µM
SMILES: O=C(COc1ccc(F)cc1)N/N=C/c1ccco1 [A3.060]

IC50 [4]: 23 µM
SMILES: CN(C)CCCN1CCN(c2nc(N(C)CC(=O)O)c3ncn(Cc4ccc(C(F)(F)F)cc4)c3n2)CC1 [A9.060]

IC50 [1]: 34.7 µM
SMILES: CSc1nnc2n(/N=C/c3ccco3)cnn12 [A4.112]

IC50 (Table 13, read-out: IC50APN): 2.7 µM
SMILES: CCOC(=O)c1ccc(-c2ccc(/C=C3\C(=O)N(CCO)C(=O)C(C#N)=C3C)o2)cc1 [A13.002]

IC50 [3]: 45 µM
SMILES: Cc1ccc(/C=C/C(=O)Nc2ccccc2C(N)=O)o1 [A3.245]

IC50 [3]: 62.7 µM
SMILES: Cc1ccc(/C=N/NC(=O)COc2cccc(Cl)c2)o1 [A3.284]

IC50 (Table 4, starred values = ID50, read-out: ID50 APN (values marked with *)): 33.8 µM
SMILES: Cc1cccc(C(=O)Nc2ccc(C(=O)N/N=C/c3ccc4c(c3)OCO4)cc2)c1 [A4.105]

IC50 [3]: 12 µM
SMILES: C/C(=N\NC(=O)CNC(=O)/C=C/c1ccco1)c1ccc2ccccc2c1 [A3.050]

IC50 [3]: 68.9 µM
SMILES: O=C(N/N=C/c1ccco1)c1ccc(F)cc1 [A3.296]

IC50 [5]: 3.4 µM
SMILES: C/C(Cn1nnc([N+](=O)[O-])n1)=N/NC(=O)COc1ccccc1[N+](=O)[O-] [A8.002]

IC50 [1]: 10.9 µM
SMILES: Cc1ccc(/C=N/NC(=O)c2cn(-c3nonc3N)nn2)o1 [A4.016]

IC50 (Table 9, starred values = ID50, read-out: ID50 APN (values marked with *)): 53.2 µM
SMILES: Cc1ccc(Cn2c(SCCC(=O)O)nc3c2c(=O)[nH]c(=O)n3C)cc1 [A9.100]

IC50 (Table 7, read-out: IC50APN): 12 µM
SMILES: O=C(O)CSCC1NC(=S)N(c2ccccc2)C1=O (centres unmarked) [A7.005]

IC50 [1]: 26.4 µM
SMILES: Cc1ccc(/C=N/NC2=NC(=O)CS2)o1 [A4.082]
